Reference: ChEMBL document CHEMBL5050845, “Enhancers of neurolysin activity” (2020)
Blank lines part the entries; values can stand above or below the compound they belong to. Calls of active or inactive are those of the source. No cut-off for these calls is given here. Peptide text beside a SMILES is read from it. * marks the point of attachment. NHPhenethyl = c1ccc(CCN*)cc1; Boc = CC(C)(C)OC(=O)*

What was measured:
Rattus norvegicus [1] = species: Rattus norvegicus; experiment: Positive allosteric modulation of recombinant N-terminal poly-His tagged rat neurolysin using Mca-Pro-Leu- Gly-Pro-D-Lys(DNP)-OH as substrate assessed as Amax and measured by fluorescence based assay relative to control
Rattus norvegicus [2] = species: Rattus norvegicus; experiment: Positive allosteric modulation of recombinant N-terminal poly-His tagged rat neurolysin using Mca-Pro-Leu- Gly-Pro-D-Lys(DNP)-OH as substrate and measured by fluorescence based assay
[3] = Inhibition of recombinant N-terminal poly-His tagged rat neurolysin using Mca-Pro-Leu- Gly-Pro-D-Lys(DNP)-OH as substrate in presence of 100 uM NSC 374121 and measured by fluorescence based assay relative to control
[4] = Inhibition of recombinant N-terminal poly-His tagged rat neurolysin using Mca-Pro-Leu- Gly-Pro-D-Lys(DNP)-OH as substrate in presence of 100 uM NSC 523374 and measured by fluorescence based assay relative to control
Rattus norvegicus [5] = species: Rattus norvegicus; experiment: Positive allosteric modulation of catalytic activity of recombinant N-terminal poly-His tagged rat neurolysin using Mca-Pro-Leu- Gly-Pro-D-Lys(DNP)-OH as substrate and measured by fluorescence based assay relative to control; settings: filed as positive allosteric modulator
Rattus norvegicus [6] = species: Rattus norvegicus; experiment: Positive allosteric modulation of catalytic activity of recombinant N-terminal poly-His tagged rat neurolysin using Mca-Pro-Leu- Gly-Pro-D-Lys(DNP)-OH as substrate in presence of 1 uM dynoprhin A (1 to 13) and measured by fluorescence based assay relative to control; settings: filed as positive allosteric modulator
Rattus norvegicus [7] = species: Rattus norvegicus; experiment: Positive allosteric modulation of catalytic activity of recombinant N-terminal poly-His tagged rat neurolysin at 40 uM assessed as Vmax as fluorescent unit/ng protein and measured fluorescence assay; settings: filed as positive allosteric modulator
Rattus norvegicus [8] = species: Rattus norvegicus; experiment: Positive allosteric modulation of catalytic activity of recombinant N-terminal poly-His tagged rat neurolysin at 100 uM assessed as Vmax as fluorescent unit/ng protein measured fluorescence assay; settings: filed as positive allosteric modulator
Rattus norvegicus [9] = species: Rattus norvegicus; experiment: Positive allosteric modulation of catalytic activity of recombinant N-terminal poly-His tagged rat neurolysin at 40 uM assessed as Km measured fluorescence assay; settings: filed as positive allosteric modulator
Rattus norvegicus [10] = species: Rattus norvegicus; experiment: Positive allosteric modulation of catalytic activity of recombinant N-terminal poly-His tagged rat neurolysin at 100 uM assessed as Km measured fluorescence assay; settings: filed as positive allosteric modulator
Homo sapiens [11] = species: Homo sapiens; experiment: Positive allosteric modulation of recombinant N-terminal Met and His-tagged human neurolysin using Mca-Pro-Leu- Gly-Pro-D-Lys(DNP)-OH as substrate and measured by fluorescence based assay relative to control; settings: filed as positive allosteric modulator
Mus musculus = species: Mus musculus; experiment: Positive allosteric modulation of neurolysin in mouse brain using Mca-Pro-Leu- Gly-Pro-D-Lys(DNP)-OH as substrate and measured by fluorescence based assay relative to control; type: tissue-based; settings: filed as positive allosteric modulator
Homo sapiens [12] = species: Homo sapiens; experiment: Inhibition of recombinant N-terminal Met and His-tagged human Thimet oligopeptidase at 300 uM using Mca-Pro-Leu-Gly-Pro-D-Lys(DNP)-OH as substrate and measured by fluorescence based assay relative to control
[13] = target: Angiotensin-converting enzyme 2 (Homo sapiens) (UniProt Q9BYF1); experiment: Inhibition of recombinant N-terminal Met and His-tagged human ACE2 at 300 uM using Mca-Ala-Pro-Lys-(Dnp)-OH as substrate and measured by fluorescence based assay relative to control
Angiotensin-converting enzyme 2 (Homo sapiens), sequence (Q9BYF1 18-805 limits assumed): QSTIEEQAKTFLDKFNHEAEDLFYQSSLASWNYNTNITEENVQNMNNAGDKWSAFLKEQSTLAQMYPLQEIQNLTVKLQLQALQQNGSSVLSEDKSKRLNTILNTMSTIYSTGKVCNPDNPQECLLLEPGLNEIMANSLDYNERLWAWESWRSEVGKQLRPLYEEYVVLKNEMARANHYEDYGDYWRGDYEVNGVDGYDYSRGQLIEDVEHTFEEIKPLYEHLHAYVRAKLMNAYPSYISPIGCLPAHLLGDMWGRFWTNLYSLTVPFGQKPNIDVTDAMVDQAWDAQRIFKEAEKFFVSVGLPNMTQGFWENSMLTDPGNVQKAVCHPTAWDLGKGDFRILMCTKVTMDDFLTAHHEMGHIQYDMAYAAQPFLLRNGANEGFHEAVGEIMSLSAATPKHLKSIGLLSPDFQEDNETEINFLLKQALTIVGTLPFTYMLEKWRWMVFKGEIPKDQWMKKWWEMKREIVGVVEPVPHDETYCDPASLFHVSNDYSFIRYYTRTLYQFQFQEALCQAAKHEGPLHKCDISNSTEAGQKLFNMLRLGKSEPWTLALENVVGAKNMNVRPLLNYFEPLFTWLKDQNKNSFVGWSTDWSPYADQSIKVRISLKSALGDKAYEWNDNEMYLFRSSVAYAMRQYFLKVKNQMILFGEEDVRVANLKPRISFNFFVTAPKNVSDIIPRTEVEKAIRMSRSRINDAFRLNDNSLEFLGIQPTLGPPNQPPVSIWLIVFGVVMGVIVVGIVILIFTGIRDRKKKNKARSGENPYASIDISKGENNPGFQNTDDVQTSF

[14] = target: Angiotensin-converting enzyme (Homo sapiens) (UniProt P12821); experiment: Inhibition of recombinant C-terminal 10His-tagged human ACE at 300 uM using Mca-Arg-Pro-Pro-Gly-Phe-Ser-Ala-Phe-Lys(Dnp)-OH as substrate and measured by fluorescence based assay relative to control
Angiotensin-converting enzyme (Homo sapiens), sequence (P12821 whole entry): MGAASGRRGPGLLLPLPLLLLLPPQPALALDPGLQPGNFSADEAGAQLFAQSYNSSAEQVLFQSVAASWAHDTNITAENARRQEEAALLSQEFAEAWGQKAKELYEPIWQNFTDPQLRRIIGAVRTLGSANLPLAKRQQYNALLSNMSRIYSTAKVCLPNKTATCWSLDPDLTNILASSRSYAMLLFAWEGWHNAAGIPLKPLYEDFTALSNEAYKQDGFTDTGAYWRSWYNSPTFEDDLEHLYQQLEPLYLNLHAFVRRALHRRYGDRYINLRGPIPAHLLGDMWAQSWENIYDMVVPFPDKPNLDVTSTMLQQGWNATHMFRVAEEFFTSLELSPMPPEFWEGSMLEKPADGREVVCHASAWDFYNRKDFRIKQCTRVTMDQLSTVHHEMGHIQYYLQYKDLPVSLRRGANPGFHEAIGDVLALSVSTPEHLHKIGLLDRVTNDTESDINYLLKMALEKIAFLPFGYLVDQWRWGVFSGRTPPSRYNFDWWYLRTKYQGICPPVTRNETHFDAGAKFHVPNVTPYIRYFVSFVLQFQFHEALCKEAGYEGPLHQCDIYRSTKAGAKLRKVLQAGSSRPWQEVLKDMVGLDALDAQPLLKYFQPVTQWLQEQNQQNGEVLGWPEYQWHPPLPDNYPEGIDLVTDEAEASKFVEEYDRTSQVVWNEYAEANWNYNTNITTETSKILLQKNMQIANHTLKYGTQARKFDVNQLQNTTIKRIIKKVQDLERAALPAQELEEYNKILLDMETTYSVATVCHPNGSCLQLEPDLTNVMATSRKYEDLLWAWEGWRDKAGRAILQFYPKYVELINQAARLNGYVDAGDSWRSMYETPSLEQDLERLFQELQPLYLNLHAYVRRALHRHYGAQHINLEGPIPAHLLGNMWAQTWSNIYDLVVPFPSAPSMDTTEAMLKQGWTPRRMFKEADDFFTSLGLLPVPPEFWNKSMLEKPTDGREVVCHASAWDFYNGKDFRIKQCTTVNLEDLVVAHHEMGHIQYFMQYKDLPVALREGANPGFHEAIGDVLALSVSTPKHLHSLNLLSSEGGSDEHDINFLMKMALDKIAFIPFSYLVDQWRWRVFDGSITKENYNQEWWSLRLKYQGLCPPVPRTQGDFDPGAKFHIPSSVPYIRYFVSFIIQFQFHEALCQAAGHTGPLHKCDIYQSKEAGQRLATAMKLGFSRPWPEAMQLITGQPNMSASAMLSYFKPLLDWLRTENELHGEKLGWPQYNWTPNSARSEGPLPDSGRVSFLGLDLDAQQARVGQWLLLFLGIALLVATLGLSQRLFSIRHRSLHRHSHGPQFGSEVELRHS

[15] = target: Neprilysin (Homo sapiens) (UniProt P08473); experiment: Inhibition of recombinant N-terminal 6His-tagged human neprilysin expressed in CHO cells at 300 uM using Mca-Arg-Pro-Pro-Gly-Phe-Ser-Ala-Phe-Lys(Dnp)-OH as substrate and measured by fluorescence based assay relative to control
Neprilysin (Homo sapiens), sequence (P08473 whole entry): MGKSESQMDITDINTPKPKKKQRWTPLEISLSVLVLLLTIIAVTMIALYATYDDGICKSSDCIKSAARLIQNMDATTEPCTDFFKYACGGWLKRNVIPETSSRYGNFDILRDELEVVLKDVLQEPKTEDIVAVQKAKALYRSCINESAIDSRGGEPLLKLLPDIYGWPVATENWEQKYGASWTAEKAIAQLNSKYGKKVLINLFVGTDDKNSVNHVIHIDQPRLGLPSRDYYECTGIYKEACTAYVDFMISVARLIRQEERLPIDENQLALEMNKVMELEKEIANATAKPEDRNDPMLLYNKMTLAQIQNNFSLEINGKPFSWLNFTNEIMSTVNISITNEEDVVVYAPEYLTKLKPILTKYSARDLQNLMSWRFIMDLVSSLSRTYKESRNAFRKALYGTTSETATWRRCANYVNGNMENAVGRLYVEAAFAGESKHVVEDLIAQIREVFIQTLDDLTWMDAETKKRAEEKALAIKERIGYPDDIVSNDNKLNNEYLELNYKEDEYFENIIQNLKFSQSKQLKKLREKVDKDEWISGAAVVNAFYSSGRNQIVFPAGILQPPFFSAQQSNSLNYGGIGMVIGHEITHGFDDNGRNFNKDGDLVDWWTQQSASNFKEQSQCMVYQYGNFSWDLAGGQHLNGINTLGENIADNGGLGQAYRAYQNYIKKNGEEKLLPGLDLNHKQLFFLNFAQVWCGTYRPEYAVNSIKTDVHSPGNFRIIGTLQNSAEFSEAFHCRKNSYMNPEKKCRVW

Rattus norvegicus [16] = species: Rattus norvegicus; experiment: Positive allosteric modulation of catalytic activity of recombinant N-terminal poly-His tagged rat neurolysin assessed as effect on fluorescence signal of Mca-Pro-Leu-OH and measured fluorescence assay
Rattus norvegicus [17] = species: Rattus norvegicus; experiment: Positive allosteric modulation of recombinant N-terminal poly-His tagged rat neurolysin at 100 uM assessed fold increase in formation of angiotensin (1 to 7) from angiotensin I and measured by mass spectrometry analysis; settings: filed as positive allosteric modulator
Rattus norvegicus [18] = species: Rattus norvegicus; experiment: Positive allosteric modulation of recombinant N-terminal poly-His tagged rat neurolysin at 100 uM assessed fold increase in formation of bradykinin (1 to 5) from bradykinin and measured by mass spectrometry analysis; settings: filed as positive allosteric modulator
Rattus norvegicus [19] = species: Rattus norvegicus; experiment: Positive allosteric modulation of recombinant N-terminal poly-His tagged rat neurolysin at 100 uM assessed fold increase in formation of neurotensin (1 to 10) from neurotensin and measured by mass spectrometry analysis; settings: filed as positive allosteric modulator
[20] = filed as positive allosteric modulator

SMILES: N[C@@H](Cc1c[nH]cn1)C(=O)NCCc1cc2ccccc2[nH]1
Emax (Rattus norvegicus [1]; [20]): 259%

SMILES: N[C@H](Cc1c[nH]cn1)C(=O)NCc1cccc2ccccc12
Emax (Rattus norvegicus [1]; [20]): 343%

SMILES: COc1ccc(CNC(=O)[C@@H](N)Cc2c[nH]cn2)cc1
Emax (Rattus norvegicus [1]; [20]): 429%

SMILES: CC[C@H](C)[C@H](NC(=O)[C@H](CCCNC(=N)N)NC(=O)[C@H](CCCNC(=N)N)NC(=O)[C@H](CC(C)C)NC(=O)[C@H](Cc1ccccc1)NC(=O)CNC(=O)CNC(=O)[C@@H](N)Cc1ccc(O)cc1)C(=O)N[C@@H](CCCNC(=N)N)C(=O)N1CCC[C@H]1C(=O)N[C@@H](CCCCN)C(=O)N[C@@H](CC(C)C)C(=O)N[C@@H](CCCCN)C(=O)O [ANALOG OF DYNORPHIN A]
Ki [3]: 700 nM
Ki [4]: 600 nM

SMILES: N[C@@H](Cc1cnc[nH]1)C(=O)N[C@@H](Cc1ccccc1)C(=O)O (H-His-Phe-OH)
A50 (Rattus norvegicus [2]; [20]): 130 µM
Emax (Rattus norvegicus [1]; [20]): 573%

SMILES: COc1cccc(CCNC(=O)[C@H](N)Cc2c[nH]cn2)c1
Emax (Rattus norvegicus [1]; [20]): 255%

SMILES: NC(Cc1c[nH]cn1)C(=O)NC(Cc1c[nH]cn1)C(=O)O (stereo not drawn)
Emax (Rattus norvegicus [5]): 203%
Emax (Rattus norvegicus [6]): 198%
Vmax (Rattus norvegicus [7]): 112 min⁻¹
Vmax (Rattus norvegicus [8]): 148 min⁻¹
Km (Rattus norvegicus [9]): 8 µM
Km (Rattus norvegicus [10]): 6.1 µM
Emax (Homo sapiens [11]): 214%
Emax (Mus musculus): 258%
inhibition (Homo sapiens [12]): 15.6%
inhibition [13]: 10.9%
inhibition [14]: 12.2%
inhibition [15]: 1.6%
Activity (Rattus norvegicus [16]): inactive

SMILES: N[C@@H](Cc1c[nH]cn1)C(=O)NCc1cccc2ccccc12
Emax (Rattus norvegicus [1]; [20]): 264%

SMILES: N[C@H](Cc1c[nH]cn1)C(=O)NCCc1cc2ccccc2[nH]1
Emax (Rattus norvegicus [1]; [20]): 132%

SMILES: NC(Cc1c[nH]cn1)C(=O)NCCc1cc2ccccc2[nH]1 (racemic)
Emax (Rattus norvegicus [1]; [20]): 311%

SMILES: N[C@@H](Cc1c[nH]cn1)C(=O)N1CCCC1
Emax (Rattus norvegicus [1]; [20]): 173%

SMILES: N[C@H](Cc1cnc[nH]1)C(=O)NCc1cccc(C(F)(F)F)c1
Emax (Rattus norvegicus [1]; [20]): 184%

SMILES: N[C@H](Cc1c[nH]cn1)C(=O)NCCc1ccccc1
Emax (Rattus norvegicus [1]; [20]): 407%

SMILES: COc1ccc(CCNC(=O)[C@@H](N)Cc2c[nH]cn2)cc1
Emax (Rattus norvegicus [1]; [20]): 544%

SMILES: N[C@@H](Cc1c[nH]cn1)C(=O)NCCc1ccc(F)cc1
A50 (Rattus norvegicus [2]; [20]): 27.9 µM
Emax (Rattus norvegicus [1]; [20]): 323%

SMILES: O=C(CCc1cnc[nH]1)NCCc1c[nH]c2ccccc12
A50 (Rattus norvegicus [2]): inactive
Emax (Rattus norvegicus [1]): inactive

SMILES: COc1ccc(CNC(=O)[C@H](N)Cc2cnc[nH]2)cc1
Emax (Rattus norvegicus [1]; [20]): 704%

SMILES: CC(C)(C)OC(=O)N[C@@H](Cc1c[nH]cn1)C(=O)N[C@@H](Cc1ccccc1)C(=O)O (Boc-His-Phe-OH)
A50 (Rattus norvegicus [2]): inactive
Emax (Rattus norvegicus [1]): inactive

SMILES: N[C@@H](Cc1cnc[nH]1)C(=O)N[C@@H](Cc1ccc(O)cc1)C(=O)O (H-His-Tyr-OH)
Emax (Rattus norvegicus [1]; [20]): 467%

SMILES: N[C@@H](Cc1c[nH]cn1)C(=O)NCCc1ccccc1
Emax (Rattus norvegicus [1]; [20]): 231%

SMILES: O=C1NC(Cc2c[nH]cn2)C(=O)N2CCCC12 (stereo not drawn)
A50 (Rattus norvegicus [2]): inactive
Emax (Rattus norvegicus [1]): inactive

SMILES: N[C@@H](Cc1c[nH]cn1)C(=O)NCc1ccc(F)cc1
Emax (Rattus norvegicus [1]; [20]): 252%

SMILES: COc1cccc(CNC(=O)[C@H](N)Cc2cnc[nH]2)c1
Emax (Rattus norvegicus [1]; [20]): 477%

The next lines start with results.

A50 (Rattus norvegicus [2]): inactive
Emax (Rattus norvegicus [1]): inactive
SMILES: CC(C)(C)OC(=O)N[C@@H](Cc1c[nH]cn1)C(=O)NCCc1cc2ccccc2[nH]1

A50 (Rattus norvegicus [2]): inactive
Emax (Rattus norvegicus [1]): inactive
SMILES: N[C@@H](Cc1ccccn1)C(=O)NCCc1ccccc1

A50 (Rattus norvegicus [2]; [20]): 12.3 µM
Emax (Rattus norvegicus [1]; [20]): 262%
SMILES: N[C@@H](Cc1c[nH]cn1)C(=O)NCc1ccc2ccccc2c1

Emax (Rattus norvegicus [1]; [20]): 340%
SMILES: N[C@H](Cc1c[nH]cn1)C(=O)NCCc1ccc2ccccc2c1

Emax (Rattus norvegicus [1]; [20]): 494%
SMILES: N[C@@H](Cc1c[nH]cn1)C(=O)NCc1cccc(C(F)(F)F)c1

Emax (Rattus norvegicus [1]; [20]): 643%
SMILES: N[C@H](Cc1c[nH]cn1)C(=O)NCCc1ccc(C(F)(F)F)cc1

Emax (Rattus norvegicus [1]; [20]): 334%
SMILES: N[C@@H](Cc1c[nH]cn1)C(=O)NCc1ccccc1C(F)(F)F

Emax (Rattus norvegicus [1]; [20]): 152%
SMILES: N[C@@H](Cc1c[nH]cn1)C(=O)NCc1ccccc1

A50 (Rattus norvegicus [2]; [20]): 5.4 µM
Emax (Rattus norvegicus [1]; [20]): 178%
SMILES: N[C@@H](Cc1c[nH]cn1)C(=O)N[C@@H](Cc1ccccc1)C(=O)NCCc1ccccc1 (H-His-Phe-NHPhenethyl)

Emax (Rattus norvegicus [1]; [20]): 305%
SMILES: N[C@@H](Cc1c[nH]cn1)C(=O)NCc1ccc(C(F)(F)F)cc1

Emax (Rattus norvegicus [1]; [20]): 324%
SMILES: N[C@@H](Cc1c[nH]cn1)C(=O)NCCc1ccc2ccccc2c1

Emax (Rattus norvegicus [1]; [20]): 438%
SMILES: N[C@@H](Cc1c[nH]cn1)C(=O)NCCc1ccc(C(F)(F)F)cc1

Emax (Rattus norvegicus [1]; [20]): 599%
SMILES: N[C@H](Cc1c[nH]cn1)C(=O)NCc1ccc(C(F)(F)F)cc1

A50 (Rattus norvegicus [2]): inactive
Emax (Rattus norvegicus [1]): inactive
SMILES: CC(C)(C)OC(=O)N[C@@H](Cc1c[nH]cn1)C(=O)NCCc1ccccc1

Emax (Rattus norvegicus [5]): 235%
Emax (Rattus norvegicus [6]): 238%
Vmax (Rattus norvegicus [7]): 124 min⁻¹
Vmax (Rattus norvegicus [8]): 165 min⁻¹
Km (Rattus norvegicus [9]): 7.9 µM
Km (Rattus norvegicus [10]): 6.4 µM
Emax (Homo sapiens [11]): 204%
inhibition (Homo sapiens [12]): 25.9%
inhibition [13]: 13.4%
inhibition [14]: 22.6%
inhibition [15]: 2.9%
fold change (FC) (Rattus norvegicus [17]): 6
fold change (FC) (Rattus norvegicus [18]): 2
fold change (FC) (Rattus norvegicus [19]): 3
Activity (Rattus norvegicus [16]): inactive
SMILES: NC(Cc1c[nH]cn1)C(=O)NC(Cc1ccc(O)cc1)C(=O)O (stereo not drawn) (H-His-Tyr-OH; configuration not given here)
Emax (Mus musculus): 190%

A50 (Rattus norvegicus [2]): inactive
Emax (Rattus norvegicus [1]): inactive
SMILES: CC(C)(C)OC(=O)N[C@@H](Cc1c[nH]cn1)C(=O)NCCc1c[nH]c2ccccc12

Emax (Rattus norvegicus [1]; [20]): 325%
SMILES: COc1ccccc1CNC(=O)[C@H](N)Cc1c[nH]cn1

A50 (Rattus norvegicus [2]; [20]): 7.74 µM
Emax (Rattus norvegicus [1]; [20]): 140%
SMILES: N[C@@H](Cc1c[nH]cn1)C(=O)Nc1ccccc1

Emax (Rattus norvegicus [1]; [20]): 396%
SMILES: N[C@H](Cc1c[nH]cn1)C(=O)NCCc1ccccc1C(F)(F)F

Emax (Rattus norvegicus [1]; [20]): 440%
SMILES: N[C@@H](Cc1c[nH]cn1)C(=O)N[C@H](Cc1cc2ccccc2[nH]1)C(=O)O
